Tests used:
[1] = pH monitoring of calcium carbonate antacid tablets in HCl dissolution vessel; format: physicochemical; settings: five tablets, 25 mEq of HCl
Method: Two dissolution vessels were prepared: one vessel contained 25 mEq of HCl and a single commercially available calcium carbonate antacid tablet (Tums®), and the other vessel contained 25 mEq of HCl and five calcium carbonate antacid tablets. […] Calcium carbonate has shown a capability as a pH modifier and pH dependent solubility.

[2] = acid media pH 1
Method: Thus, sodium bicarbonate was added to a prototype formulation primarily to control rapid pH elevation and calcium carbonate for a more sustained control of elevated pH.

Row | Structure (SMILES) | pH reached in 10 minutes [1] | time to raise acid media from pH 1 to pH 6 [2]
1 | O=C([O-])[O-].[Ca+2] [calcium carbonate] | 5 | 
2 | O=C([O-])O.[Na+] [sodium bicarbonate] |  | less than 2 minutes
